Tests used:
xanthine oxidase (XO) [1] = molecular target: T1, xanthine oxidase (XO) (Bos taurus, UniProt P80457)
T1 construct: gene XDH

xanthine oxidase (XO) [2] = molecular target: T1, xanthine oxidase (XO); test: SPR (Biacore T200, CM5 chip, immobilised XO, steady-state analysis); also lowers uric acid production by purified XO (UHPLC-MS); format: binding

T1 sequence (P80457 2-1332): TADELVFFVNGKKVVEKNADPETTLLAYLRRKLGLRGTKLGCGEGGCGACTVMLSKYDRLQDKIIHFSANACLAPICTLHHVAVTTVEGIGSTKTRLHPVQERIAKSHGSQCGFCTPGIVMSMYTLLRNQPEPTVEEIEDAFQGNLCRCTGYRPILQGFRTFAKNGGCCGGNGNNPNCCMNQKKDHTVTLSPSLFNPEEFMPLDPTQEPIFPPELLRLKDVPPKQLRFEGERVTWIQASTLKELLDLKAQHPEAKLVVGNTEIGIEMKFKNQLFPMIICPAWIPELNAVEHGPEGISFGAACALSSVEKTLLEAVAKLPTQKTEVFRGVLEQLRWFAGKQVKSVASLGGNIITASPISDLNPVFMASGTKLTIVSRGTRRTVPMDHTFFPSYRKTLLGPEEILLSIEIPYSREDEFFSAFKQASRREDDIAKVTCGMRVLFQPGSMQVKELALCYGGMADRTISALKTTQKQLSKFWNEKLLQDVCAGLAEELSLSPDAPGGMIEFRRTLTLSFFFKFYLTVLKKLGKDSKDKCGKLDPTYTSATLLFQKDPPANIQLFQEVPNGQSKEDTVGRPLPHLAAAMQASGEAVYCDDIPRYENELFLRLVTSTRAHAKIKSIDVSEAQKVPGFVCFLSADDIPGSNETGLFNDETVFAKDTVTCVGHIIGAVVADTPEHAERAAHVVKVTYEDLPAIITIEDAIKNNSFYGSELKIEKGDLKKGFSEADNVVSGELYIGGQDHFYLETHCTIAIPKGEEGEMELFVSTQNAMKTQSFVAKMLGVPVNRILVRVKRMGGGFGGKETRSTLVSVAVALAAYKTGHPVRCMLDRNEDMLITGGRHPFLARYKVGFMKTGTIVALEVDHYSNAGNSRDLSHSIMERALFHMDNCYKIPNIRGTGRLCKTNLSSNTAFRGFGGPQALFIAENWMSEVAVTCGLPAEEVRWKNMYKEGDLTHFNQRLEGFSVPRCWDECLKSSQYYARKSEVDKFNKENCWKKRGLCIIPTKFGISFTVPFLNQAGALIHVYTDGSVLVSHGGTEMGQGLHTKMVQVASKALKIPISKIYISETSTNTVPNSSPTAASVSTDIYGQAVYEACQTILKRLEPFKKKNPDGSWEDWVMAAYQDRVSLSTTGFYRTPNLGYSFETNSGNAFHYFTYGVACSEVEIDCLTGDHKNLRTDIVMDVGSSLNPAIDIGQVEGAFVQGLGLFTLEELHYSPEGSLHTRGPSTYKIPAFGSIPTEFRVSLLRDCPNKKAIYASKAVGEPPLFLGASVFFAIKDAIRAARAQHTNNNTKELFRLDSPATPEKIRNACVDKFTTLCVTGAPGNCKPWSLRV

Row | Kd (xanthine oxidase (XO) [2]) [nM] | SMILES | XO reaction-UHPLC/MS assay of uric acid production from xanthine, AP at 100 μM a (xanthine oxidase (XO) [1])
1 | – | Oc1ncnc2[nH]ncc12 [AP, allopurinol] | We observed a significant reduction in uric acid levels in the AP treated group, a potent purine-like XOI
2 | 250 | OC[C@H]1O[C@@H](Oc2cc3c(O)cc(O)cc3[o+]c2-c2cc(O)c(O)c(O)c2)[C@H](O)[C@@H](O)[C@@H]1O [Dp-3G, delphinidin-3-glucoside] | –
